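Where inhibition never reached the appropriate level, the endpoint shown equals the highest concentration tested. Otherwise, values were interpolated linearly from a five-concentration, 48-hour dose response in 96-well plates. At the GI50, growth is halved.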 The source made the active and inactive calls. No stated cut-off is given here; in the data, active = GI50 up to about 1.1 µM and inactive = higher.
Columns and labels:
Test in all cases: inhibition of tumour cell growth, NCI panel, 48 h
UO-31 = system: UO-31
K562 = system: K562
786-0 = system: 786-0
U-251 = system: U-251
RPMI-8226 = system: RPMI-8226
SF-295 = system: SF-295
SK-MEL-2 = system: SK-MEL-2
SNB-19 = system: SNB-19
NCI-H522 = system: NCI-H522
PC-3 = system: PC-3
UACC-257 = system: UACC-257
MDA-MB-231 = system: MDA-MB-231
A549 = system: A549
SW-620 = system: SW-620
M14 = system: M14
EKVX = system: EKVX
HOP-92 = system: HOP-92
IGROV-1 = system: IGROV-1
HL-60 = system: HL-60
COLO 205 = system: COLO 205
LOX IMVI = system: LOX IMVI
HCT-15 = system: HCT-15
SK-MEL-28 = system: SK-MEL-28
SF-268 = system: SF-268
OVCAR-5 = system: OVCAR-5
NCI/ADR-RES = system: NCI/ADR-RES
A498 = system: A498
DU-145 = system: DU-145
ACHN = system: ACHN
SR = system: SR
OVCAR-3 = system: OVCAR-3
Hs-578T = system: Hs-578T
HCC 2998 = system: HCC 2998
KM12 = system: KM12
HCT-116 = system: HCT-116
NCI-H460 = system: NCI-H460
BT-549 = system: BT-549
MCF7 = system: MCF7
SF-539 = system: SF-539
RXF 393 = system: RXF 393
OVCAR-4 = system: OVCAR-4
CAKI-1 = system: CAKI-1
NCI-H226 = system: NCI-H226
SK-OV-3 = system: SK-OV-3
SNB-75 = system: SNB-75
MOLT-4 = system: MOLT-4
OVCAR-8 = system: OVCAR-8
SK-MEL-5 = system: SK-MEL-5
HT-29 = system: HT-29
MDA-N = system: MDA-N
HOP-62 = system: HOP-62
SN12C = system: SN12C
MDA-MB-435 = system: MDA-MB-435
T47D = system: T47D
TK-10 = system: TK-10
UACC-62 = system: UACC-62
NCI-H23 = system: NCI-H23
CCRF-CEM = system: CCRF-CEM
Malme-3M = system: Malme-3M

Structure (SMILES): COc1ccc(C2SCC(=O)N2NC(=O)C(C)Oc2ccc(Cl)cc2Cl)cc1 (centres undefined)
- GI50 (UO-31): 88.5 µM (inactive)
- GI50 (K562): 27 µM (inactive)
- GI50 (786-0): 20.3 µM (inactive)
- GI50 (U-251): 33.7 µM (inactive)
- GI50 (RPMI-8226): 30.7 µM (inactive)
- GI50 (SF-295): 36.1 µM (inactive)
- GI50 (SK-MEL-2): 50.2 µM (inactive)
- GI50 (SNB-19): 35 µM (inactive)
- GI50 (NCI-H522): 91.2 µM (inactive)
- GI50 (PC-3): 27.4 µM (inactive)
- GI50 (UACC-257): 42.4 µM (inactive)
- GI50 (MDA-MB-231): 26.7 µM (inactive)
- GI50 (A549): 31.6 µM (inactive)
- GI50 (SW-620): > 100 µM (inactive)
- GI50 (M14): 51.2 µM (inactive)
- GI50 (EKVX): 60 µM (inactive)
- GI50 (HOP-92): 21.1 µM (inactive)
- GI50 (IGROV-1): 37 µM (inactive)
- GI50 (HL-60): 14.2 µM (inactive)
- GI50 (COLO 205): 73.8 µM (inactive)
- GI50 (LOX IMVI): 41.1 µM (inactive)
- GI50 (HCT-15): > 100 µM
- GI50 (SK-MEL-28): 30.9 µM (inactive)
- GI50 (SF-268): > 100 µM (inactive)
- GI50 (OVCAR-5): > 100 µM (inactive)
- GI50 (NCI/ADR-RES): 56.6 µM (inactive)
- GI50 (A498): 25 µM (inactive)
- GI50 (DU-145): 53 µM (inactive)
- GI50 (ACHN): 72.3 µM (inactive)
- GI50 (SR): < 0.01 µM (active)
- GI50 (OVCAR-3): 66.2 µM (inactive)
- GI50 (Hs-578T): 34.5 µM (inactive)
- GI50 (HCC 2998): 55.6 µM (inactive)
- GI50 (KM12): 55.1 µM (inactive)
- GI50 (HCT-116): 36.6 µM (inactive)
- GI50 (NCI-H460): 81.1 µM (inactive)
- GI50 (BT-549): 23.7 µM (inactive)
- GI50 (MCF7): 32.1 µM (inactive)
- GI50 (SF-539): 17 µM (inactive)
- GI50 (RXF 393): 25.6 µM (inactive)
- GI50 (OVCAR-4): 23.6 µM (inactive)
- GI50 (CAKI-1): 21.8 µM (inactive)
- GI50 (NCI-H226): 16.4 µM (inactive)
- GI50 (SK-OV-3): 49.2 µM (inactive)
- GI50 (SNB-75): 22 µM (inactive)
- GI50 (MOLT-4): 28.3 µM (inactive)
- GI50 (OVCAR-8): 31.3 µM (inactive)
- GI50 (SK-MEL-5): 46.5 µM (inactive)
- GI50 (HT-29): > 100 µM (inactive)
- GI50 (MDA-N): 83 µM (inactive)
- GI50 (HOP-62): 20.6 µM (inactive)
- GI50 (SN12C): 41.7 µM (inactive)
- GI50 (MDA-MB-435): 76.7 µM (inactive)
- GI50 (T47D): 28.4 µM (inactive)
- GI50 (TK-10): 42.6 µM (inactive)
- GI50 (UACC-62): 33.9 µM (inactive)
- GI50 (NCI-H23): 64.9 µM (inactive)

Structure (SMILES): Cc1cccc2c1CC1(Cc3ccccc3C1=O)C2=O (centres undefined)
- GI50 (UO-31): > 100 µM (inactive)
- GI50 (K562): > 100 µM (inactive)
- GI50 (786-0): > 100 µM (inactive)
- GI50 (U-251): > 100 µM (inactive)
- GI50 (RPMI-8226): > 100 µM (inactive)
- GI50 (SF-295): > 100 µM (inactive)
- GI50 (SNB-19): > 100 µM (inactive)
- GI50 (NCI-H522): > 100 µM (inactive)
- GI50 (PC-3): > 100 µM (inactive)
- GI50 (UACC-257): > 100 µM (inactive)
- GI50 (MDA-MB-231): > 100 µM (inactive)
- GI50 (A549): > 100 µM (inactive)
- GI50 (CCRF-CEM): > 100 µM (inactive)
- GI50 (SW-620): > 100 µM (inactive)
- GI50 (M14): > 100 µM (inactive)
- GI50 (EKVX): > 100 µM (inactive)
- GI50 (HOP-92): 76.9 µM (inactive)
- GI50 (IGROV-1): > 100 µM (inactive)
- GI50 (HL-60): > 100 µM (inactive)
- GI50 (COLO 205): > 100 µM (inactive)
- GI50 (LOX IMVI): > 100 µM (inactive)
- GI50 (HCT-15): > 100 µM
- GI50 (SK-MEL-28): > 100 µM (inactive)
- GI50 (SF-268): 87.1 µM (inactive)
- GI50 (OVCAR-5): > 100 µM (inactive)
- GI50 (NCI/ADR-RES): > 100 µM (inactive)
- GI50 (A498): > 100 µM (inactive)
- GI50 (DU-145): > 100 µM (inactive)
- GI50 (ACHN): > 100 µM (inactive)
- GI50 (SR): > 100 µM (inactive)
- GI50 (OVCAR-3): > 100 µM (inactive)
- GI50 (Hs-578T): 26.2 µM (inactive)
- GI50 (HCC 2998): > 100 µM (inactive)
- GI50 (KM12): > 100 µM (inactive)
- GI50 (HCT-116): > 100 µM (inactive)
- GI50 (NCI-H460): > 100 µM (inactive)
- GI50 (BT-549): 24.7 µM (inactive)
- GI50 (MCF7): > 100 µM (inactive)
- GI50 (SF-539): > 100 µM (inactive)
- GI50 (RXF 393): > 100 µM (inactive)
- GI50 (OVCAR-4): > 100 µM (inactive)
- GI50 (NCI-H226): > 100 µM (inactive)
- GI50 (SK-OV-3): 37.6 µM (inactive)
- GI50 (SNB-75): 77.4 µM (inactive)
- GI50 (MOLT-4): > 100 µM (inactive)
- GI50 (OVCAR-8): > 100 µM (inactive)
- GI50 (SK-MEL-5): > 100 µM (inactive)
- GI50 (HT-29): > 100 µM (inactive)
- GI50 (MDA-N): > 100 µM (inactive)
- GI50 (Malme-3M): > 100 µM (inactive)
- GI50 (HOP-62): 35.7 µM (inactive)
- GI50 (SN12C): > 100 µM (inactive)
- GI50 (MDA-MB-435): > 100 µM (inactive)
- GI50 (T47D): > 100 µM (inactive)
- GI50 (TK-10): > 100 µM (inactive)
- GI50 (UACC-62): 75.7 µM (inactive)
- GI50 (NCI-H23): > 100 µM (inactive)
